# Biological target: T1, M3 muscarinic acetylcholine receptor (mAChR) (Homo sapiens, UniProt P20309)
# T1 construct: expressed in transfected cells; host or cells: CHO-K1
# Test: FLIPR calcium assay (Fluo 8), M3-overexpressing CHO-K1 cells
# Type: cell-based
# Settings: FLIPR
# Protocol: Stimulation of a Gq-coupled G-protein coupled receptors (GPCRs), result in an efflux of calcium from the endoplasmic reticulum to the cytoplasm (Berridge, 1993), thus rendering this assay appropriate for the assessment of M1, M3 and M5 receptors. CHO-K1 cells overexpressing the M1, M3, or M5 muscarinic acetylcholine receptor (mAChR) were dispensed at 15,000 cells per well in 30 μl volume to 384-well plates and grown overnight at 37° C. in a 5% CO2 atmosphere. Fluo-8 Solution, 10 μl per well, was added to each well and incubated for 30 minutes at 37° C. in a 5% CO2 atmosphere. Compounds diluted in Hanks' balanced salt solution (HBSS) were transferred to the cell assay plate at 10 μl per well, and then read on a FLIPR instrument. EC50 and Emax figures were calculated from the resulting data for each receptor subtype.
# T1 sequence (P20309 whole entry): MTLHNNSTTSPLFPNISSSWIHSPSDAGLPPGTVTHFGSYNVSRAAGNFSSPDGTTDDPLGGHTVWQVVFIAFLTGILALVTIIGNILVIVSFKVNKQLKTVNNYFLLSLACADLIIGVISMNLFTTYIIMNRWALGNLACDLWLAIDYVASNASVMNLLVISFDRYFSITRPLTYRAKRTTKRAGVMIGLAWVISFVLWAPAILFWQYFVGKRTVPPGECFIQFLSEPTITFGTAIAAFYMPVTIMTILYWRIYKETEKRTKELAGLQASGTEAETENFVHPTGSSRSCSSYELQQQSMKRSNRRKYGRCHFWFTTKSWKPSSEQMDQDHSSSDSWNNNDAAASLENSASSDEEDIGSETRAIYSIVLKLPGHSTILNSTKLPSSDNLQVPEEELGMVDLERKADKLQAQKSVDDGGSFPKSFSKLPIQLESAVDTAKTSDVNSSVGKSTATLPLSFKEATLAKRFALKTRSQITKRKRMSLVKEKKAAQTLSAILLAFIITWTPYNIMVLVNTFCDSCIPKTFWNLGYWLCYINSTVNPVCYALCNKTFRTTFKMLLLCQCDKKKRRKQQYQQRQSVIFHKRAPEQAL
row,EC50,SMILES
1,> 10 µM,CCOC(=O)N1CC2(CC[C@@H](N3CCN(c4cc(F)cnc4-c4ccc(=O)n(C(C)C)c4)CC3)C2)C1 [Compound A149]
2,> 10 µM,CCOC(=O)N1CC2(CC[C@@H](N3CCN(c4cc(F)cnc4-c4ccccc4C(=O)NC)CC3)C2)C1 [Compound A151]
3,> 10 µM,CCOC(=O)N1CC2(CCC(N3CCN(c4cc(F)cnc4-c4cnccn4)CC3)CC2)C1 [Compound A224]
4,> 10 µM,CCOC(=O)N1CC2(C[C@H](N3CCN(c4cc(F)cnc4-c4cnccn4)CC3)CS2)C1 [Compound A225]
5,> 10 µM,CCOC(=O)N1CC2(CC[C@@H](N3CCN(c4cc(F)cnc4-c4cc(F)cnc4F)CC3)C2)C1 [Compound A232]
6,> 10 µM,CCOC(=O)N1CC2(C[C@H](N3CCN(c4cccnc4-c4nncs4)CC3)CO2)C1 [Compound A237]
7,> 10 µM,CCOC(=O)N1CC2(CC[C@@H](N3CCN(c4cc(Cl)cnc4-c4ccnc(C)n4)CC3)C2)C1 [Compound A248]

row,SMILES,EC50
1,"CCOC(=O)N1CC2(CC(N3[C@@H]4CC[C@H]3CN(c3cc(F)cnc3-c3cnccn3)C4)CS2)C1 (single isomer, unassigned) [Compound A220]",> 10 µM
2,"CCOC(=O)N1CC2(CCC(N3[C@@H]4CC[C@H]3CN(c3cc(F)cnc3-c3cnccn3)C4)C2)C1 (single isomer, unassigned) [Compound A222]",> 10 µM
3,CCOC(=O)N1CC2(CC[C@@H](N3CCN(c4cc(F)cnc4-c4ccn(COCC[Si](C)(C)C)n4)CC3)C2)C1 [Compound A196],> 10 µM

# Same assay, conditions: FLIPR calcium
row,EC50,SMILES
1,> 10 µM,"CCOC(=O)N1CC2(CC[C@H](N3CCN(c4cc(Cl)cnc4C4CCOCC4)CC3)C2)C1 (single isomer, unassigned) [Compound A16]"
2,> 10 µM,CCOC(=O)N1CC2(CC[C@@H](N3CCN(c4cccnc4-c4cncc(C#N)c4)CC3)C2)C1 [Compound A27]
3,> 10 µM,CCOC(=O)N1CC2(CC[C@@H](N3CCN(c4cc(F)cnc4-c4cccc5cn(C)nc45)CC3)C2)C1 [Compound A66]

row,SMILES,EC50
1,"CCOC(=O)N1CC2(CC[C@@H](N3CCN(c4cccnc4OC4CCC4)CC3)C2)C1 [Compound A5, (R)-ethyl 6-(4-(2-cyclobutoxypyridin-3-yl)piperazin-1-yl)-2-azaspiro[3.4]octane-2-carboxylate]",> 10 µM

# Biological target: T2, M4 mAChR (Homo sapiens, UniProt P08173)
# T2 construct: expressed in transfected cells; host or cells: CHO-K1
# T2 sequence (P08173 1-479): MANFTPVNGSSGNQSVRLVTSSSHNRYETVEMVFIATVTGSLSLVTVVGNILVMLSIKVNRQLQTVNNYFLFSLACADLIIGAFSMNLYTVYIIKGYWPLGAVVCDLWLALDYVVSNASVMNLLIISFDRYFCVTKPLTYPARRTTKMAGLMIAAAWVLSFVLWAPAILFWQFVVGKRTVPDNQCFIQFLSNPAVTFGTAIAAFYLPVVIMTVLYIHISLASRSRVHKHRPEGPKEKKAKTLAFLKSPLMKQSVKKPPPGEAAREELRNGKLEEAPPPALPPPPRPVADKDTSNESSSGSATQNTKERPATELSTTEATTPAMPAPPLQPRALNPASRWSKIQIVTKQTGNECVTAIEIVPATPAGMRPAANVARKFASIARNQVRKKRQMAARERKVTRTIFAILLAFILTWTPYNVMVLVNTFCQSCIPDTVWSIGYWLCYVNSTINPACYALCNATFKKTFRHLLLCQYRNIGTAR
# Test: cAMP TR-FRET assay with forskolin, M4-overexpressing CHO-K1 cells
# Type: cell-based
# Settings: cAMP TR-FRET with forskolin
# Text: The M2 and M4 mACh receptors are Gi-coupled receptors which, upon activation, produce a decrease in cAMP. Assays were developed that measured the potency and efficacy of compounds at the M2 or M4 mAChR using M2- or M4-overexpressing CHO-K1 cell lines. Time-resolved fluorescence resonance energy transfer (TR-FRET) technology was used, where signal occurs as a result of transfer of energy if the donor molecule is in close proximity to an acceptor molecule when the molecules have bound to the molecule of interest. The cAMP detection is a competition binding assay, where cAMP produced by cells competes for binding with the labeled donor molecule to the anti-cAMP acceptor antibody. Due to the low basal levels of cAMP in the CHO-K1 cell line, forskolin was used to increase cAMP levels to enable assessment of agonist activity at the mAChR of interest.
row,Emax,SMILES
1,80 to 100%,"CCOC(=O)N1CC2(CC[C@@H](N3CCC(c4cc(F)cnc4-c4cnccn4)CC3)C2)C1 (single isomer, unassigned) [Compound A11]"
2,80 to 100%,"CCOC(=O)N1CC2(CC[C@H](N3CCC(c4cc(F)cnc4-c4cnccn4)CC3)C2)C1 (single isomer, unassigned) [Compound A12]"
3,80 to 100%,"CCOC(=O)N1CC2(CC[C@@H](N3CCN(c4cc(F)cnc4C4(F)CCOCC4)CC3)C2)C1 (single isomer, unassigned) [Compound A19]"
4,80 to 100%,"CCOC(=O)N1CC2(CC[C@H](N3CCC(c4cc(F)cnc4-c4nncs4)CC3)C2)C1 (single isomer, unassigned) [Compound A21]"
5,80 to 100%,"CCOC(=O)N1CC2(CC[C@@H](N3CCC(c4cc(F)cnc4-c4nncs4)CC3)C2)C1 (single isomer, unassigned) [Compound A22]"
6,80 to 100%,"CCOC(=O)N1CC2(CC[C@@H](N3CCC(c4cc(F)cnc4-n4cc(C)nn4)CC3)C2)C1 (single isomer, unassigned) [Compound A23]"
7,80 to 100%,"CCOC(=O)N1CC2(CC[C@H](N3CCC(c4cc(F)cnc4-n4cc(C)nn4)CC3)C2)C1 (single isomer, unassigned) [Compound A24]"
8,80 to 100%,"CCOC(=O)N1CC2(CCC(N3CCN(c4cccnc4N4CCC4)CC3)C2)C1 (stereo not shown) [Compound A4, ethyl 6-(4-(2-(azetidin-1-yl)pyridin-3-yl)piperazin-1-yl)-2-azaspiro[3.4]octane-2-carboxylate]"
9,80 to 100%,"CCOC(=O)N1CC2(CC[C@@H](N3CCN(c4cc(F)cnc4-c4cscn4)CC3)C2)C1 [Compound A8, ethyl (6R)-6-[4-(5-fluoro-2-thiazol-4-yl-3-pyridyl)piperazin-1-yl]-2-azaspiro[3.4]octane-2-carboxylate]"
10,80 to 100%,CCOC(=O)N1CC2(CC[C@@H](N3CCN(c4cccnc4-c4cncc(OC(F)F)c4)CC3)C2)C1 [Compound A28]

row,SMILES,Emax
1,"CCOC(=O)N1CC2(CC[C@@H](N3CCC(O)(c4cc(F)cnc4-c4cnccn4)CC3)C2)C1 (single isomer, unassigned) [Compound A14]",80 to 100%

# Same assay, conditions: cAMP assay
row,Emax,SMILES
1,80 to 100%,"CCOC(=O)N1CC2(CC[C@@H](N3CCN(c4cc(F)cnc4C4CCOC4)CC3)C2)C1 (single isomer, unassigned) [Compound A281]"
2,80 to 100%,CCOC(=O)N1CC2(CC[C@@H](N3CCN(c4cc(F)cnc4-c4c[nH]c(=O)[nH]c4=O)CC3)C2)C1 [Compound A211]
3,80 to 100%,CCOC(=O)N1CC2(CC[C@@H](N3CCN(c4cc(Cl)cnc4-c4cscn4)CC3)C2)C1 [Compound A212]
4,80 to 100%,CCOC(=O)N1CC2(CC[C@@H](N3CCN(c4cc(F)cnc4-c4ccns4)CC3)C2)C1 [Compound A213]
5,80 to 100%,CCOC(=O)N1CC2(CC[C@@H](N3CCN(c4cc(F)cnc4-c4cnsc4)CC3)C2)C1 [Compound A214]
6,80 to 100%,CCOC(=O)N1CC2(CC[C@@H](N3CCN(c4cc(F)cnc4-c4nncs4)CC3)C2)C1 [Compound A236]
7,19 to 49.9%,CCOC(=O)N1CC2(CC[C@@H](N3CCN(c4cc(F)cnc4-c4nccnc4OC)CC3)C2)C1 [Compound A238]
8,80 to 100%,CCOC(=O)N1CC2(CC[C@@H](N3CCN(c4cc(Cl)cnc4-c4cnc(C)cn4)CC3)C2)C1 [Compound A239]
9,80 to 100%,CCOC(=O)N1CC2(CC[C@@H](N3CCN(c4cc(F)cnc4-c4ncc(F)cc4F)CC3)C2)C1 [Compound A240]
10,50 to 79.9%,CCOC(=O)N1CC2(CC[C@@H](N3CCN(c4cc(F)cnc4-c4ccc(C)nn4)CC3)C2)C1 [Compound A241]
11,80 to 100%,CCOC(=O)N1CC2(CC[C@@H](N3CCN(c4cc(F)cnc4-c4cccnn4)CC3)C2)C1 [Compound A242]
12,80 to 100%,CCOC(=O)N1CC2(CC[C@@H](N3CCN(c4cc(F)cnc4-n4cnnc4)CC3)C2)C1 [Compound A260]
13,80 to 100%,CCOC(=O)N1CC2(CC[C@@H](N3CCN(c4cc(F)cnc4OC4(C)CCOCC4)CC3)C2)C1 [Compound A261]
14,80 to 100%,CCOC(=O)N1CC2(CC[C@@H](N3CCN(c4cc(Cl)cnc4-n4nccn4)CC3)C2)C1 [Compound A262]
15,80 to 100%,CCOC(=O)N1CC2(CC[C@@H](N3CCN(c4cc(Cl)cnc4Br)CC3)C2)C1 [Compound A263]
16,80 to 100%,CCOC(=O)N1CC2(CC[C@@H](N3CCN(c4cccnc4-c4nncs4)CC3)C2)C1 [Compound A264]
17,80 to 100%,CCOC(=O)N1CC2(CC[C@@H](N3CCN(c4cc(F)cnc4-c4ncc(C)s4)CC3)C2)C1 [Compound A266]
18,50 to 79.9%,CCOC(=O)N1CC2(CC[C@@H](N3CCN(c4cc(F)cnc4-c4nc(C)cs4)CC3)C2)C1 [Compound A267]
19,80 to 100%,CCOC(=O)N1CC2(CC[C@@H](N3CCN(c4cc(Cl)cnc4-c4ncccc4F)CC3)C2)C1 [Compound A268]
20,80 to 100%,CCOC(=O)N1CC2(CC[C@@H](N3CCN(c4cc(Cl)cnc4-c4ncccc4Cl)CC3)C2)C1 [Compound A269]
21,80 to 100%,CCOC(=O)N1CC2(CC[C@@H](N3CCN(c4cc(F)cnc4-c4ccsn4)CC3)C2)C1 [Compound A270]
22,80 to 100%,CCOC(=O)N1CC2(CC[C@@H](N3CCN(c4cc(Cl)cnc4-c4cnc(C)nc4)CC3)C2)C1 [Compound A271]
23,80 to 100%,CCOC(=O)N1CC2(CC[C@@H](N3CCN(c4cc(F)cnc4C4CCC(F)(F)CC4)CC3)C2)C1 [Compound A275]
24,80 to 100%,CCOC(=O)N1CC2(CC[C@@H](N3CCN(c4cc(F)cnc4C4CC5(COC5)C4)CC3)C2)C1 [Compound A277]
25,80 to 100%,CCOC(=O)N1CC2(CC[C@@H](N3CCN(c4cccnc4C4CCOCC4)CC3)C2)C1 [Compound A278]
26,80 to 100%,CCOC(=O)N1CC2(CC[C@@H](N3CCN(c4cc(F)cnc4-c4nccs4)CC3)C2)C1 [Compound A286]
27,80 to 100%,CCOC(=O)N1CC2(CC[C@@H](N3CCN(c4cc(F)cnc4-c4ncccc4Cl)CC3)C2)C1 [Compound A287]
